{"source": "patent US20220347299A1", "about": "“FLUORESCENT SYSTEMS FOR BIOLOGICAL IMAGING AND USES THEREOF” (LIGHTOX LIMITED, priority 2019, published 2022)", "key": {"[1]": {"experiment": "Peak absorption and fluorescence emission wavelengths in solvents", "format": "physicochemical", "conditions": "for λem(max)/nm: 100 nM, excitation at peak of absorption; for λabs(max)/nm: 10 μM", "procedure": "Peak absorption and fluorescence emission wavelengths of compounds 6, 7, 12, 13, 14, 15, 19, 23, 27, 30 and 34 were measured in a variety of solvents, and the results are shown in Table 1. Absorption measurements were recorded at a concentration of 10 μM, and emission measurements were recorded at a concentration of 100 nM. Emission spectra were recorded with excitation at the peak of absorption (S0→S1)."}, "black-grass cells": {"system": "black-grass cells", "experiment": "Cytotoxicity assay (FDA/PI) in black-grass cell suspension culture", "format": "cell-based", "procedure": "5 mL of black-grass cell suspension culture was treated with 0.1, 1, 5, and 10 μM of compound numbers 7, 14, 12 and 15 for 1 hour at room temperature. Cells treated with 0.1% DMSO were used as a control. Cells were irradiated (˜365 nm) for 5 minutes before being incubated at 25° C., 150 rpm for 24 hours. In addition, the cytotoxicity of the compounds without irradiation was also assessed. Cell viability of five biological replicates for each concentration were determined via fluorescence assay (FDA/PI) assay. Percentage of cell viability was calculated using following formulation:\n% viability={live cells (FDA)/(live cells+dead cells)}×100\nThe statistical analysis of percentage of cell viability was performed through one-way analysis of variance (ANOVA) followed by Tukey HSD posthoc test using SPSS 23 (IBM, Chicago, Ill., USA)."}, "Mycobacterium smegmatis": {"system": "Mycobacterium smegmatis", "experiment": "Overnight growth curve (OD 600 nm) cytotoxicity assay, M. smegmatis", "format": "cell-based", "procedure": "A sample of M. smegmatis was taken from a plate culture and inoculated into Middlebrook 7H9 broth containing an added Middlebrook ADC growth supplement to culture overnight at 37° C. for approximately 16 hours.\nSamples were incubated in darkness at room temperature for approximately 2 hrs. A black clear bottom Costar™-96 well plate was then filled, with 200 μl of sample in each well Cells were irradiated for 5 minutes at approximately 15 mW/cm^2. The cytotoxicity of the compounds without irradiation was also assessed.\nThe 96 well plate was put into the plate reader and set up to run a growth curve protocol using the following parameters: • Incubation temperature: 37° C. • OD read wavelength 600 nm • 250 cycles, readings every 5 rains • Shaking for 5 s pre-reading\nThis was left to run overnight to obtain kinetic growth curves based on optical density readings."}}}
{"smiles": "COC(=O)/C=C/c1ccc(C#Cc2ccc(N(C)CCN)cc2)cc1", "note": "[Compound 12, methyl (2E)-3-[4-(2-{4-[(2-aminoethyl)(methyl)amino]phenyl}ethynyl)phenyl]prop-2-enoate]", "values": [{"measurement": "λem(max)/nm", "setting": "[1]; DCM", "value": 551, "unit": "nm"}, {"measurement": "λabs(max)/nm", "setting": "[1]; DCM", "value": 371, "unit": "nm"}, {"measurement": "λem(max)/nm", "setting": "[1]; Toluene", "value": 482, "unit": "nm"}, {"measurement": "λabs(max)/nm", "setting": "[1]; Toluene", "value": 380, "unit": "nm"}, {"measurement": "black-grass cell viability", "setting": "black-grass cells; 5 μM and 10 μM, after ~365 nm irradiation", "value": "significantly reduced"}, {"measurement": "dependence of cytotoxic effect on irradiation", "setting": "black-grass cells; black-grass cells, ~365 nm, 5 minutes", "value": "only observed after irradiation"}, {"measurement": "growth of M. smegmatis, radiated samples", "setting": "Mycobacterium smegmatis; 100 μM, 405 nm, 5 min, approximately 15 mW/cm^2", "value": "begin to indicate some cytotoxicity"}, {"measurement": "growth of M. smegmatis, no photoactivation", "setting": "Mycobacterium smegmatis; 1-100 μM, not irradiated", "value": "no significant difference between the treated and untreated controls"}]}
